According to PubChem BioAssay AID1996:
Converted amounts (≈) assume the structure as drawn.

Conditions: buffer; pH 7.4; 200.0 µM

Structure (SMILES) | solubility kinetic
COc1cccc(/C=C/C(=O)NCc2ccc3c(c2)OCO3)c1 | 11.4 µg/mL (≈ 36.6 µM)
Cc1cccc(C)c1NC(=O)CN(C)C(=O)CCC(=O)N1CCOCC1 | > 54.2 µg/mL
C=CCn1c(O)c(C(C)=NC2CCN(Cc3ccccc3)CC2)c(=O)[nH]c1=O | 53.6 µg/mL (≈ 140 µM)
Cc1ccc(NC(=O)C(Cc2ccccc2)n2cccc2)cc1 (stereo not given) | 1.9 µg/mL (≈ 6.24 µM)
Oc1cc2c(cc1CN1CCN(c3ncccn3)CC1)OCO2 | 17.2 µg/mL (≈ 54.7 µM)
Cc1ccccc1Nc1c(-c2ccccc2)nc2ncccn12 | 8.1 µg/mL (≈ 27 µM)
Cc1cc(-c2csc(Nc3ccccn3)n2)ccc1F | < 0.2 µg/mL
Cc1ccc(C(=O)N[C@H](C(=O)Nc2ccc(F)cc2)C(C)C)cc1 | 3 µg/mL (≈ 9.14 µM)
CC1CN(Cc2ccccc2)c2nc3c(c(=O)[nH]c(=O)n3C)n2C1 (stereo not given) | > 48.8 µg/mL
CN(C(=O)c1ccc(N2CCOCC2)c([N+](=O)[O-])c1)C1CCCCC1 | > 52.1 µg/mL
CC(=O)N1NC(=Nc2ccccc2)SC1(C)C | > 37.4 µg/mL
O=P(Nc1ccccc1)(Oc1ccccc1)Oc1ccccc1 | < 0.7 µg/mL
CCNc1nc(SCC(=O)OC)nc(N(C)C)n1 | > 40.7 µg/mL
COc1ccc(C(CNC(=O)c2cccc(S(=O)(=O)N3CCOCC3)c2)N2CCOCC2)cc1 (stereo not given) | > 73.4 µg/mL
COc1ccc(-c2cc(C(=O)NC3CCCC3)c3ccccc3n2)cc1 | 4.7 µg/mL (≈ 13.6 µM)
O=C(Nc1cccc2ccccc12)NC1CCCCC1 | < 0.3 µg/mL
c1ccc(-c2ncc3ccccn23)cc1 | 19.1 µg/mL (≈ 98.3 µM)
CC1(C)C2CCC1(CS(=O)(=O)NC1CCCC1)C(=O)C2 (stereo not given) | > 44.9 µg/mL
CC(C)CCN(C(=S)Nc1cccc(F)c1)C1CCN(C(C)C)CC1 | 48.2 µg/mL (≈ 132 µM)
COCCN(C(=S)Nc1c(C)cccc1C)C(C)c1cccs1 (stereo not given) | 16.1 µg/mL (≈ 46.2 µM)

Structure (SMILES) | solubility kinetic
O=C(Nc1ccc(F)c([N+](=O)[O-])c1)C1CCCO1 (stereo not given) | > 38.1 µg/mL
Cc1cccc(OCCNC(=O)CCc2ccccc2)c1 | 34.4 µg/mL (≈ 121 µM)
Cc1cccc(N2CCN(CC(=O)NCc3ccccc3)CC2)c1C | 43.6 µg/mL (≈ 129 µM)
CC(CNC(=O)c1ccccc1[N+](=O)[O-])NC(=O)c1ccccc1[N+](=O)[O-] (stereo not given) | > 55.9 µg/mL
CC(=O)c1c(C)[nH]c(C(=O)Nc2ccc(C)cc2Br)c1C | 0.8 µg/mL (≈ 2.29 µM)
Cc1ccc(-n2sc3ccccc3c2=O)cc1 | 9.2 µg/mL (≈ 38.1 µM)
Oc1c(CN2CCOCC2)ccc2ccccc12 | 16.9 µg/mL (≈ 69.5 µM)
O=C1CCC(C(=O)Nc2ccccc2N2CCCC2)=NN1 | > 42.9 µg/mL
Brc1ccccc1CN1CCC(Cc2ccccc2)CC1 | 2.6 µg/mL (≈ 7.55 µM)
C=CCN1C(=O)c2ccccc2C1(O)Cc1ccccc1 (stereo not given) | 36.6 µg/mL (≈ 131 µM)
CC(=O)Nc1cccc2c1C(=O)N(c1cccc(OC(C)=O)c1)C2=O | > 50.7 µg/mL
COc1cccc(CNc2ccc(S(=O)(=O)N3CCCC3)cn2)c1 | 46 µg/mL (≈ 132 µM)
O=c1cc(CN2CCOCC2)c2cc(Cl)c(O)cc2o1 | > 44.4 µg/mL
Cc1ccc(S(=O)(=O)N2CCCC(C(=O)NC3CC3)C2)cc1 (stereo not given) | 46.2 µg/mL (≈ 143 µM)
Cc1nc2c(C)[n+](CC(=O)c3ccccc3)ccc2n1C.[Br-] | > 54 µg/mL
O=[N+]([O-])c1ccc(NC(=S)N2CCCC2)cc1 | 8.2 µg/mL (≈ 32.6 µM)
Cl.c1ccc(-c2ccc(OCCN3CCOCC3)cc2)cc1 | 29.8 µg/mL
CC(=O)c1cc2c(cc1NC(=O)Cc1c(C)noc1C)OCO2 | > 47.4 µg/mL
CCOc1cccc(C(=O)Nc2cccc(NC(=O)c3ccco3)c2)c1 | 3.9 µg/mL (≈ 11.1 µM)
Nc1ccccc1C(=O)NCCCN1CCOCC1 | > 39.5 µg/mL

Structure (SMILES) | solubility kinetic
Cc1cccc2c(N=O)c(O)[nH]c12 | > 26.4 µg/mL
CCNc1cc(N2CCN(C)CC2)ccc1[N+](=O)[O-] | > 39.6 µg/mL
Cc1ccc(N/C=C/C(=O)c2ccccc2)cc1Br | < 0.7 µg/mL
Cc1cc(=O)[nH]c(SCc2cccc3ccccc23)n1 | 23.5 µg/mL (≈ 83.2 µM)
Cc1ccc(S(=O)(=O)N2CCCCC2)cc1NC(=O)C1CC1 | > 48.4 µg/mL
O=C(COC(=O)CCc1ccc(S(=O)(=O)N2CCOCC2)cc1)Nc1ccccc1OC(F)F | 49.5 µg/mL (≈ 99.3 µM)
CC(C)(C)c1ccc(C(=O)NCc2ccco2)cc1 | 13.5 µg/mL (≈ 52.5 µM)
CCCn1c2ccccc2c2cnn(CC(=O)NCCOC)c(=O)c21 | > 51.4 µg/mL
CC(=O)c1ccc(S(=O)(=O)NC2CCCCCCC2)cc1 | 45.1 µg/mL (≈ 146 µM)
CCOC(=O)c1c(NC(=O)COC(=O)c2cccnc2OCC)sc(C(=O)N(CC)CC)c1C | 4.6 µg/mL (≈ 9.36 µM)
COc1ccc(NC(=O)Cn2cnc3ccccc3c2=O)cc1OC | 12.6 µg/mL (≈ 37.1 µM)
Cc1ccc(C(=O)NCC(=O)N2CCCCCCC2)cc1C | > 45.4 µg/mL
CCN(CC)C(=O)C1CCCN(C/C=C/c2ccccc2[N+](=O)[O-])C1 (stereo not given) | 41.7 µg/mL (≈ 121 µM)
Cc1cc(C(=O)NC2CCCCC2)c2cc(F)ccc2n1 | 19.6 µg/mL (≈ 68.4 µM)
O=C(N/N=C/c1ccccn1)c1ccncc1 | > 33.9 µg/mL
COc1ccc(NC(=O)CC2SC(N3CCCC3)=NC2=O)cc1Cl (stereo not given) | 6.8 µg/mL (≈ 18.5 µM)
Cc1cccc(NC(=O)CNC(=O)COC(=O)C2CC2C)c1C (stereo not given) | > 47.8 µg/mL
COc1ccc2nc(NC(=O)c3ccc([N+](=O)[O-])o3)sc2c1 | 2 µg/mL (≈ 6.26 µM)
NC(=O)NC(=O)CSc1ccccc1 | > 31.5 µg/mL
COc1cccc(/C=N/NC(=O)c2ccc3nc[nH]c3c2)c1 | > 44.1 µg/mL
